Reference: patent US8957062B2, “Substituted cyclopropyl compounds, compositions containing such compounds and methods of treatment” (Merck Sharp & Dohme Corp., priority 2011, dated 2015)

molecular target: T1, human GPR119 (Homo sapiens, UniProt Q8TDV5); assay: Measurement of GPR119 signaling (cAMP assay) in cells stably transfected with human GPR119; assay type: cell-based; details: stated in the example text; cAMP stimulation, human GPR119; read-out: GPR119 Human EC50
T1 sequence (Q8TDV5 1-308 limits assumed): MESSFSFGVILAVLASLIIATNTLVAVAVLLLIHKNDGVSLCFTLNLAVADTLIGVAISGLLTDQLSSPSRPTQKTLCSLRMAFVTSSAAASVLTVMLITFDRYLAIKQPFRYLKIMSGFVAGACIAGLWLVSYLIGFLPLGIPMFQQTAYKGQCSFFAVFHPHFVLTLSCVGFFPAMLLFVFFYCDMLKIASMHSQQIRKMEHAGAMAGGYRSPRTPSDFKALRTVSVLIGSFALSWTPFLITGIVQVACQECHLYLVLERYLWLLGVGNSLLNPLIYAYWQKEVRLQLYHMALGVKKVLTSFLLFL
Experimental: Measurement of GPR119 Signaling (Cyclic AMP (cAMP) Assay)
The adenylate cyclase assay was constructed following the LANCE™ cAMP Kit (Perkin Elmer, AD0264) instructions.
The reaction was stopped by incubating with the supplied detection buffer containing the europium chelate of the Eu-SA/Biotin-cAMP tracer for 3 hours. The assay was performed in duplicate in a 384 well plate for duplicate plates and fluorescence was measured at 665 nm. Basal activity was determined using a DMSO control and maximum response was defined as cAMP stimulation produced by an internal agonist control. Standard cAMP concentrations were assayed concurrently for conversion of fluorescence signal to cAMP level. The data was analyzed using 4-parameter curve fit in Microsoft Excel.
Measurement of GPR119 Signaling (cAMP Homogenous Time Resolved Fluorescence (HTRF) Assay)
Chinese hamster ovary (CHO) cell lines stably transfected with the permissive guanine nucleotide binding protein alpha 15 (Gα15) and murine GPR119 were maintained in DMEM media containing FBS, penicillin-streptomycin, puromycin, and G418 (geneticin). […] Agonist activation of the GPR119 receptor was measured in receptor transfected cells described above, treated with compounds of this invention, using a commercial homogenous time resolved fluorescence (HTRF) kit for measurement of cAMP (CisBio, Bedford, Mass.). The assay was performed in 96-well half-volume plates (murine) or 384-well plates (human) following the manufacturers instructions. Briefly, suspended cells were incubated with a dose titration of test compound at RT for 60 min, lysed, and incubated with HTRF reagents for an additional 60 min. The plate was read using an Envision multilabel reader (Perkin Elmer) adjusted to read time resolved fluorescence and the cAMP concentrations were extrapolated from a cAMP calibration curve. […] The concentration of test compound required to stimulate a half-maximal response (EC50), and efficacy as compared to an internal agonist control, was determined from a sigmoidal 4-parameter curve fit of the resulting plot of normalized activity versus compound concentration.

Row | EC50 | SMILES
1 | 8.4 nM | CCS(=O)(=O)c1ccc(OCC[C@H]2C[C@H]2C2CCN(c3nc(COC)no3)CC2)cc1F (stereo in doubt) [Example 15, 4-((1S,2R)-2-{2-[4-(ethylsulfonyl)-3-fluorophenoxy]ethyl}cyclopropyl)-1-[3-(methoxymethyl)-1,2,4-oxadiazol-5-yl]piperidine]
2 | 0.9 nM | COCc1noc(N2CCC([C@@H]3C[C@@H]3CCOc3ccc(S(C)(=O)=O)cc3F)CC2)n1 (stereo in doubt) [Example 220, 4-((1S,2R)-2-{2-[2-fluoro-4-(methylsulfonyl)phenoxy]ethyl}cyclopropyl)-1-[3-(methoxymethyl)-1,2,4-oxadiazol-5-yl]piperidine]
3 | 1.6 nM | CC(C)COC(=O)N1CCC([C@H]2C[C@H]2CCOc2ccc(-n3cnnn3)cc2)CC1 [Example 1, isobutyl 4-((1R,2S)-2-(2-(4-(1H-tetrazol-1-yl)phenoxy)ethyl)cyclopropyl)piperidine-1-carboxylate]
4 | 1 nM | CC1(OC(=O)N2CCC([C@H]3C[C@H]3CCOc3ccc(-n4cnnn4)cc3)CC2)CC1 [Example 2, 1-methylcyclopropyl 4-((1R,2S)-2-(2-(4-(1H-tetrazol-1-yl)phenoxy)ethyl)cyclopropyl)piperidine-1-carboxylate]
5 | 0.3 nM | CS(=O)(=O)c1ccc(OCC[C@@H]2C[C@@H]2C2CCN(C(=O)OCC3CC3)CC2)nc1 [Example 13, cyclopropylmethyl 4-((1R,2S)-2-(2-(5-(methylsulfonyl)pyridin-2-yloxy)ethyl)cyclopropyl)piperidine-1-carboxylate]
6 | 0.7 nM | Cc1cc(-n2cnnn2)cnc1OCC[C@@H]1C[C@@H]1C1CCN(C(=O)OC2(C)CC2)CC1 [Example 30, 1-methylcyclopropyl 4-[(1R,2S)-2-(2-{[3-methyl-5-(1H-tetrazol-1 yl)pyridin-2-yl]oxy}ethyl)cyclopropyl]piperidine-1-carboxylate]
7 | 0.88 nM | CC1(OC(=O)N2CCC([C@H]3C[C@H]3CCOc3ccc(-n4cncn4)cn3)CC2)CC1 [Example 34, 1-methylcyclopropyl 4-[(1R,2S)-2-(2-{[5-(1H-1,2,4-triazol-1-yl)pyridin-2-yl]oxy}ethyl)cyclopropyl]piperidine-1-carboxylate]
8 | 0.9 nM | CC(C)(C)OC(=O)N1CCC([C@H]2C[C@H]2CCOc2ccc(S(C)(=O)=O)cc2)CC1 [Example 35, tert-butyl 4-((1R,2S)-2-{2-[4-(methylsulfonyl)phenoxy]ethyl}cyclopropyl) piperidine-1-carboxylate]
9 | 34 nM | COC(=O)N1CCC([C@H]2C[C@H]2CCOc2cc(C#N)nc(C)n2)CC1 [Example 44]

same assay, conditions: table column; cAMP stimulation, human GPR119; read-out: GPR119 Human EC50

Row | EC50 | SMILES
10 | 7 nM | CC(C)(C)OC(=O)N1CCC([C@H]2C[C@H]2CCOc2ccc(-n3cnnn3)cc2)CC1 [Example 5]
11 | 2 nM | CCOC(=O)N1CCC([C@H]2C[C@H]2CCOc2ccc(-n3cnnn3)cc2)CC1 [Example 6]
12 | 0.8 nM | CCCOC(=O)N1CCC([C@H]2C[C@H]2CCOc2ccc(-n3cnnn3)cc2)CC1 [Example 7]
13 | 1 nM | O=C(OC1CCC1)N1CCC([C@H]2C[C@H]2CCOc2ccc(-n3cnnn3)cc2)CC1 [Example 8]
14 | 15 nM | CC(C)(C)COC(=O)N1CCC([C@H]2C[C@H]2CCOc2ccc(-n3cnnn3)cc2)CC1 [Example 9]
15 | 0.3 nM | CC1(OC(=O)N2CCC([C@H]3C[C@H]3CCOc3ccc(-n4cnnn4)cc3)CC2)CCC1 [Example 10]
16 | 1.5 nM | CC(C)OC(=O)N1CCC([C@H]2C[C@H]2CCOc2ccc(-n3cnnn3)cc2)CC1 [Example 11]
17 | 11.8 nM | O=C(OCc1ccccc1)N1CCC([C@H]2C[C@H]2CCOc2ccc(-n3cnnn3)cc2)CC1 [Example 12]
18 | 46 nM | CC(C)OC(=O)N1CCC([C@H]2C[C@H]2CCOc2ccc(S(C)(=O)=O)cn2)CC1 [Example 16]
19 | 5.8 nM | CC(C)(C)OC(=O)N1CCC([C@H]2C[C@H]2CCOc2ccc(S(C)(=O)=O)cn2)CC1 [Example 17]
20 | 0.4 nM | CS(=O)(=O)c1ccc(OCC[C@@H]2C[C@@H]2C2CCN(C(=O)OC3CCC3)CC2)nc1 [Example 18]
21 | 12 nM | CC(C)COC(=O)N1CCC([C@H]2C[C@H]2CCOc2ccc(S(C)(=O)=O)cn2)CC1 [Example 19]
22 | 22 nM | CCOC(=O)N1CCC([C@H]2C[C@H]2CCOc2ccc(S(C)(=O)=O)cn2)CC1 [Example 20]
23 | 0.6 nM | CC1(OC(=O)N2CCC([C@H]3C[C@H]3CCOc3ccc(S(C)(=O)=O)cn3)CC2)CCC1 [Example 21]
24 | 5 nM | CS(=O)(=O)c1ccc(OCC[C@@H]2C[C@@H]2C2CCN(C(=O)OCC3CCC3)CC2)nc1 [Example 22]
25 | 0.6 nM | CC1(COC(=O)N2CCC([C@H]3C[C@H]3CCOc3ccc(S(C)(=O)=O)cn3)CC2)CC1 [Example 23]
26 | 4.2 nM | CC1(OC(=O)N2CCC([C@H]3C[C@H]3CCOc3ccc(S(C)(=O)=O)cn3)CC2)CC1 [Example 24]
27 | 2.2 nM | CCC1(OC(=O)N2CCC([C@H]3C[C@H]3CCOc3ccc(S(C)(=O)=O)cn3)CC2)CC1 [Example 25]
28 | 0.6 nM | CC1(COC(=O)N2CCC([C@H]3C[C@H]3CCOc3ccc(S(C)(=O)=O)cn3)CC2)CCC1 [Example 26]

Row | EC50 | SMILES
29 | 0.9 nM | CCS(=O)(=O)c1ccc(OCC[C@@H]2C[C@@H]2C2CCN(C(=O)OC3(C)CC3)CC2)nc1 [Example 27]
30 | 1.8 nM | CCS(=O)(=O)c1ccc(OCC[C@@H]2C[C@@H]2C2CCN(c3nc(C(C)C)no3)CC2)cc1F [Example 28]
31 | 7.7 nM | CCS(=O)(=O)c1ccc(OCC[C@@H]2C[C@@H]2C2CCN(c3nc(C(C)C)no3)CC2)cc1 [Example 29]
32 | 2.8 nM | Cc1cc(-n2cnnn2)cnc1OCC[C@@H]1C[C@@H]1C1CCN(C(=O)OCc2ccccc2)CC1 [Example 31]
33 | 15 nM | O=C(OCc1ccccc1)N1CCC([C@H]2C[C@H]2CCOc2ccc(-n3cnnn3)cn2)CC1 [Example 33]
34 | 14.5 nM | CCS(=O)(=O)c1ccc(OCC[C@@H]2C[C@@H]2C2CCN(C(=O)OC3(C)CC3)CC2)cc1 [Example 36]
35 | 16 nM | CC1(OC(=O)N2CCC([C@H]3C[C@H]3CCOc3ccc(S(=O)(=O)C4CC4)cc3)CC2)CC1 [Example 37]
36 | 12 nM | CC(C)(C)OC(=O)N1CCC([C@H]2C[C@H]2CCOc2cc(F)c(S(C)(=O)=O)c(F)c2)CC1 [Example 38]
37 | 6.6 nM | CC(C)OC(=O)N1CCC([C@H]2C[C@H]2CCOc2cc(F)c(S(C)(=O)=O)c(F)c2)CC1 [Example 39]
38 | 2.3 nM | CC(C)OC(=O)N1CCC([C@H]2C[C@H]2CCOc2ccc(S(C)(=O)=O)c(F)c2)CC1 [Example 40]
39 | 0.4 nM | CC(C)(C)COC(=O)N1CCC([C@H]2C[C@H]2CCOc2ccc(S(C)(=O)=O)c(F)c2)CC1 [Example 41]
40 | 2.5 nM | CCS(=O)(=O)c1ccc(OCC[C@@H]2C[C@@H]2C2CCN(C(=O)OC3(C)CC3)CC2)cc1F [Example 42]
41 | 1 nM | CC1(OC(=O)N2CCC([C@H]3C[C@H]3CCOc3ccc(S(=O)(=O)C4CC4)c(F)c3)CC2)CC1 [Example 43]
42 | 3.6 nM | CCOC(=O)N1CCC([C@H]2C[C@H]2CCOc2cc(C#N)nc(C)n2)CC1 [Example 45]
43 | 1.2 nM | Cc1nc(C#N)cc(OCC[C@@H]2C[C@@H]2C2CCN(C(=O)OC(C)C)CC2)n1 [Example 46]
44 | 0.2 nM | Cc1nc(C#N)cc(OCC[C@@H]2C[C@@H]2C2CCN(C(=O)OC(C)(C)C)CC2)n1 [Example 47]
45 | 1 nM | Cc1nc(C#N)cc(OCC[C@@H]2C[C@@H]2C2CCN(C(=O)OCC(C)C)CC2)n1 [Example 48]
46 | 2 nM | Cc1nc(C#N)cc(OCC[C@@H]2C[C@@H]2C2CCN(C(=O)OC3(C)CC3)CC2)n1 [Example 49]

same assay, conditions: unit inferred; read-out: GPR119 Human EC50

Row | EC50 | SMILES
47 | 1.8 nM | Cc1nnc(-c2ccc(OCC[C@@H]3C[C@@H]3C3CCN(C(=O)OC(C)(C)C)CC3)cc2F)o1 [Example 50]
